# Patent publication US20040005354A1, “Oral trimethobenzamide formulations and methods” (King Pharmaceuticals, Inc., priority 2002, published 2004)
# Experiment: Safety assessment (adverse events, laboratory tests) in the four-way crossover study
# Type: in vivo, human (healthy subjects)
# Text: Seventy-four healthy, non-smoking, male & female subjects, 18-65 years old were enrolled in this study. A total of 68 subjects completed all the requirements of the protocol. There were no enrollment violations. However, nine of the 74 subjects began the study during the third period of the initial group of subjects. All 74 subjects who received at least one dose of study medication were included in the safety analysis.
# This study was a single center, randomized, open-label, 4-way crossover study in healthy subjects. Dosing was administered in the fasted state. Seventy-four (74) subjects were randomized into the study. All seventy-four subjects received one or more doses of study medication and are therefore included in the safety assessment. On Treatment Day 1 of the first treatment period, each subject was randomized to receive one of four possible study treatment sequences. The treatment groups consisted of the four treatments administered sequentially as DCAB, ADBC, BACD or CBDA. These treatments are shown below.
# A signed informed consent was obtained from each subject. For screening purposes, the following procedures were required of each subject and were performed by the clinical site within 30 days prior to the study: a complete physical examination including a medical history, vital signs, clinical laboratory safety tests on blood and urine, medications taken prior to and during the study, and a serum pregnancy test for female subjects.
# During the treatments, temperature, blood pressure, heart rate and respiratory rate were monitored as a safety measure. A physical examination and clinical laboratory tests were repeated at the completion of the study. Subjects were observed and questioned throughout the study for the occurrence of any adverse events.
# A total of 28 adverse events (AEs) were experienced; 27 were treatment emergent. Twenty-one (21) of these were assessed as related to study treatment. All related AEs are known to occur with trimethobenzamide and were primarily mild or moderate in intensity. One (1) severe AE occurred in one subject which was judged as unrelated to study treatment-severe pharyngitis. […] A summary of treatment emergent adverse events (AEs) is presented in Table 6 using the preferred medical term.
substance,measurement,setting,value
"N-[2-(dimethylamino)-ethoxy]-3,4,5-trimethoxybenzamide hydrochloride [trimethobenzamide hydrochloride]","NAUSEA AND VOMITING, subjects n",sequence B A C D (N = 18),0
same,"NAUSEA, subjects %",sequence B A C D (N = 18),0.0%
same,"NAUSEA, subjects n",sequence B A C D (N = 18),0
same,"Number of Subject With At Least one AE, %",sequence B A C D (N = 18),22.2%
same,"Number of Subject With No AE, %",sequence B A C D (N = 18),77.8%
same,"PARESTHESIA, subjects %",sequence B A C D (N = 18),11.1%
same,"PARESTHESIA, subjects n",sequence B A C D (N = 18),2
same,"PHARYNGITIS, subjects %",sequence B A C D (N = 18),0.0%
same,"PHARYNGITIS, subjects n",sequence B A C D (N = 18),0
same,"RASH, subjects %",sequence B A C D (N = 18),5.6%
same,"RASH, subjects n",sequence B A C D (N = 18),1
same,"ABDOMINAL PAIN, subjects %",sequence C B D A (N = 18),0.0%
same,"ABDOMINAL PAIN, subjects n",sequence C B D A (N = 18),0
same,"CONJUNCTIVITIS, subjects %",sequence C B D A (N = 18),0.0%
same,"CONJUNCTIVITIS, subjects n",sequence C B D A (N = 18),0
same,"DIARRHEA, subjects %",sequence C B D A (N = 18),5.6%
same,"DIARRHEA, subjects n",sequence C B D A (N = 18),1
same,"DIZZINESS, subjects %",sequence C B D A (N = 18),0.0%
same,"DIZZINESS, subjects n",sequence C B D A (N = 18),0
same,"EDEMA, PALMAR, subjects %",sequence C B D A (N = 18),0.0%
same,"EDEMA, PALMAR, subjects n",sequence C B D A (N = 18),0
same,"ERYTHEMA, EXTERNAL NOSE, subjects %",sequence C B D A (N = 18),5.6%
same,"ERYTHEMA, EXTERNAL NOSE, subjects n",sequence C B D A (N = 18),1
same,"ERYTHEMA, PALMAR, subjects %",sequence C B D A (N = 18),0.0%
same,"ERYTHEMA, PALMAR, subjects n",sequence C B D A (N = 18),0
same,"HEADACHE, subjects %",sequence C B D A (N = 18),16.7%
same,"HEADACHE, subjects n",sequence C B D A (N = 18),3
same,"HYPOTONIA, subjects %",sequence C B D A (N = 18),5.6%
same,"HYPOTONIA, subjects n",sequence C B D A (N = 18),1
same,"INJECTION SITE REACTION, subjects %",sequence C B D A (N = 18),0.0%
same,"INJECTION SITE REACTION, subjects n",sequence C B D A (N = 18),0
same,"LARYNGISMUS, subjects %",sequence C B D A (N = 18),0.0%
same,"LARYNGISMUS, subjects n",sequence C B D A (N = 18),0
same,"LEG CRAMPS, subjects %",sequence C B D A (N = 18),0.0%
same,"LEG CRAMPS, subjects n",sequence C B D A (N = 18),0
same,"NAUSEA AND VOMITING, subjects %",sequence C B D A (N = 18),0.0%
same,"NAUSEA AND VOMITING, subjects n",sequence C B D A (N = 18),0
same,"NAUSEA, subjects %",sequence C B D A (N = 18),0.0%
same,"NAUSEA, subjects n",sequence C B D A (N = 18),0
same,"Number of Subject With At Least one AE, %",sequence C B D A (N = 18),22.2%
same,"Number of Subject With No AE, %",sequence C B D A (N = 18),77.8%
same,"PARESTHESIA, subjects %",sequence C B D A (N = 18),0.0%
same,"PARESTHESIA, subjects n",sequence C B D A (N = 18),0
same,"PHARYNGITIS, subjects %",sequence C B D A (N = 18),0.0%
same,"PHARYNGITIS, subjects n",sequence C B D A (N = 18),0
same,"RASH, subjects %",sequence C B D A (N = 18),0.0%
same,"RASH, subjects n",sequence C B D A (N = 18),0
same,"ABDOMINAL PAIN, subjects %",sequence D C A B (N = 18),0.0%
same,"ABDOMINAL PAIN, subjects n",sequence D C A B (N = 18),0
same,"CONJUNCTIVITIS, subjects %",sequence D C A B (N = 18),0.0%
same,"CONJUNCTIVITIS, subjects n",sequence D C A B (N = 18),0
same,"DIARRHEA, subjects %",sequence D C A B (N = 18),0.0%
same,"DIARRHEA, subjects n",sequence D C A B (N = 18),0
same,"DIZZINESS, subjects %",sequence D C A B (N = 18),0.0%
same,"DIZZINESS, subjects n",sequence D C A B (N = 18),0
same,"EDEMA, PALMAR, subjects %",sequence D C A B (N = 18),0.0%
same,"EDEMA, PALMAR, subjects n",sequence D C A B (N = 18),0
same,"ERYTHEMA, EXTERNAL NOSE, subjects %",sequence D C A B (N = 18),0.0%
same,"ERYTHEMA, EXTERNAL NOSE, subjects n",sequence D C A B (N = 18),0
same,"ERYTHEMA, PALMAR, subjects %",sequence D C A B (N = 18),0.0%
same,"ERYTHEMA, PALMAR, subjects n",sequence D C A B (N = 18),0
same,"HEADACHE, subjects %",sequence D C A B (N = 18),16.7%
same,"HEADACHE, subjects n",sequence D C A B (N = 18),3
same,"HYPOTONIA, subjects %",sequence D C A B (N = 18),0.0%
same,"HYPOTONIA, subjects n",sequence D C A B (N = 18),0
same,"INJECTION SITE REACTION, subjects %",sequence D C A B (N = 18),0.0%
same,"INJECTION SITE REACTION, subjects n",sequence D C A B (N = 18),0
same,"LARYNGISMUS, subjects %",sequence D C A B (N = 18),0.0%
same,"LARYNGISMUS, subjects n",sequence D C A B (N = 18),0
same,"LEG CRAMPS, subjects %",sequence D C A B (N = 18),5.6%
same,"LEG CRAMPS, subjects n",sequence D C A B (N = 18),1
same,"NAUSEA AND VOMITING, subjects %",sequence D C A B (N = 18),0.0%
same,"NAUSEA AND VOMITING, subjects n",sequence D C A B (N = 18),0
same,"NAUSEA, subjects %",sequence D C A B (N = 18),0.0%
same,"NAUSEA, subjects n",sequence D C A B (N = 18),0
same,"Number of Subject With At Least one AE, %",sequence D C A B (N = 18),27.8%
same,"Number of Subject With No AE, %",sequence D C A B (N = 18),72.2%
same,"PARESTHESIA, subjects %",sequence D C A B (N = 18),5.6%
same,"PARESTHESIA, subjects n",sequence D C A B (N = 18),1
same,"PHARYNGITIS, subjects %",sequence D C A B (N = 18),0.0%
same,"PHARYNGITIS, subjects n",sequence D C A B (N = 18),0
same,"RASH, subjects %",sequence D C A B (N = 18),0.0%
same,"RASH, subjects n",sequence D C A B (N = 18),0
